The results in this text go back to ChEMBL document CHEMBL5346866, “What about the progress in the synthesis of flavonoid from 2020?” (Eur J Med Chem, 2022).

Common to all, as to format: functional, cell-based
One experiment has as its system HCC1954. The experiment is described as follows: Anti-proliferative activity against human HCC1954 cells assessed as cell growth inhibition incubated for 72 hrs by CCK-8 assay. To be noted: HCC1954, 72 h.
The next experiment relates to SK-OV-3. The experiment is described as follows: Anti-proliferative activity against human SK-OV-3 cells assessed as cell growth inhibition incubated for 72 hrs by CCK-8 assay. To be noted: SK-OV-3, 72 h.
Another experiment relates to DU-145. The experiment is described as follows: Antiproliferative activity against human […] cells assessed as cell growth inhibition by SRB assay.
The subject of the next experiment is PC-3. Kind of experiment: Antiproliferative activity against human PC-3 cells assessed as cell growth inhibition by SRB assay.
For the next experiment, the system named is HeLa. Kind of experiment: Anti-proliferative activity against human HeLa cells assessed as cell growth inhibition incubated for 72 hrs by CCK-8 assay.

pIC50: −log10 of the molar value.

Consider `COc1ccc(-c2oc3cc(O)cc(O)c3c(=O)c2OCc2cn([C@@H]3O[C@H](COC(C)=O)[C@@H](OC(C)=O)[C@H](OC(C)=O)[C@H]3OC(C)=O)nn2)cc1O`, for which the negative-log IC50 (pIC50) in the experiment on HCC1954 is 4.36; in the experiment with SK-OV-3, 4.51.
For `C[C@@]1([N+](=O)[O-])C(=O)c2cc(F)ccc2O[C@H]1CC(=O)NC12CC3CC(CC(C3)C1)C2`, the negative logarithm of the IC50 (pIC50) was 6.19 in the experiment with DU-145 and 6.09 in the experiment with PC-3.
For `C[C@]1([N+](=O)[O-])C(=O)c2cc(F)ccc2O[C@@H]1CC(=O)NC12CC3CC(CC(C3)C1)C2`, in that order: 5.78 and 5.81.
With `COc1ccc(-c2cc(=O)c3c(C)cc(OCc4cn([C@@H]5O[C@H](COC(C)=O)[C@@H](O[C@H]6O[C@H](COC(C)=O)[C@@H](OC(C)=O)[C@H](OC(C)=O)[C@H]6OC(C)=O)[C@H](OC(C)=O)[C@H]5OC(C)=O)nn4)cc3o2)cc1`, the negative logarithm of the IC50 (pIC50) in the experiment on HeLa was 4.83.
Regarding `CC1([N+](=O)[O-])C(=O)c2cc(F)ccc2OC1CC(=O)NC12CC3CC(CC(C3)C1)C2` (racemic), the pIC50 was 5.92 in the experiment on DU-145 and 6.03 with PC-3.
